Assay [1] addresses T1, α1β3γ2WT (Homo sapiens, UniProt P14867+P18507+P28472).
T1 construct: expressed in transfected cells; host or cells: HEK 293 cells, transient calcium-phosphate transfection, α1:β3:γ2:GFP 1:1:3:1
Nature of the assay: Probability of activation (PA), whole-cell, saturating GABA versus GABA + 1 mM pentobarbitone. The note with it: n = 6. It is filed as cell-based.
Method: (§1) Whole-cell responses were recorded in patch clamp experiments from HEK 293 cells transiently transfected with human GABAA α1β3 (WT), α1GLIVIβ3BRIL (α1β3cryo-EM; see ‘Constructs’) or α1β3γ2 (WT). HEK 293 cells were grown in DMEM supplemented with 10% v/v fetal bovine serum, 100 U ml^−1 penicillin-G and 100 µg ml^−1 streptomycin (37 °C; 95% air/5% CO2), and transfected using a calcium-phosphate precipitation method with α1:β3:GFP or α1:β3:γ2:GFP cDNAs in a ratio of 1:1:1 or 1:1:3:1, respectively, 12–24 h before experimentation. Recordings were performed with cells continuously perfused with Krebs solution composed of (mM): 140 NaCl, 4.7 KCl, 1.2 MgCl2, 2.52 CaCl2, 11 Glucose and 5 HEPES (pH 7.4; ~300 mOsm). Patch pipettes (TW150F-4; WPI; 3–4 MΩ) were filled with an internal solution containing (mM): 140 KCl, 1 MgCl2, 11 EGTA, 10 HEPES,1 CaCl2, 2 K-ATP (pH 7.2; ~305 mOsm). […] Cells were voltage-clamped at −40 mV with an Axopatch 200B amplifier (Molecular Devices), currents were digitized at 50 kHz via a Digidata 1322A (Molecular Devices), filtered at 5 kHz (−36 dB), and acquired using Clampex 10.2 (Molecular Devices). Series resistance was compensated at 60–70% (lag time 10 μs).

Assay [2] has as its target T1, α1β3γ2WT. The assay is described as follows: GABA concentration used for single channel recording (~EC95). The settings on record: concentration used for single channel recordings. It is filed as cell-based. As for the experimental part:
Single GABA-activated channel currents were recorded in outside-out patches from transfected HEK 293 cells at –70 mV holding potential. Channel currents were recorded using an Axopatch 200B and filtered at 5 kHz (4-pole Bessel filter) before digitizing at 20 kHz with a Digidata 1322A. The fixed time resolution of the system was set at 80 μs. WinEDR was used for analysing single channel data. The single-channel current was determined from compiling channel current amplitude histograms and fitting Gaussian components to define the mean current, s.d. and the total area of the component. […] Individual open and closed dwell times were measured using a 50% threshold cursor applied to the main single channel current amplitude in each patch. The subsequent detection of open and closed events formed the basis of an idealized single channel record used for compiling the dwell time distributions. Frequency distributions were constructed from the measured individual open and closed times and analysed by fitting a mixture of exponentials, defined by: y(t)=∑i=1nAi/τi×e^(−t/τi) where Ai is the area of the ith component to the distribution and τi represents the corresponding exponential time constant. […] An F-test determined the optimal number of exponential components that were required to fit the individual dwell time distributions. […]

For assay [3], the target named is T2, human GABAA α1β3 (WT) (Homo sapiens, UniProt P14867+P28472).
T2 sequence (P14867 28-456): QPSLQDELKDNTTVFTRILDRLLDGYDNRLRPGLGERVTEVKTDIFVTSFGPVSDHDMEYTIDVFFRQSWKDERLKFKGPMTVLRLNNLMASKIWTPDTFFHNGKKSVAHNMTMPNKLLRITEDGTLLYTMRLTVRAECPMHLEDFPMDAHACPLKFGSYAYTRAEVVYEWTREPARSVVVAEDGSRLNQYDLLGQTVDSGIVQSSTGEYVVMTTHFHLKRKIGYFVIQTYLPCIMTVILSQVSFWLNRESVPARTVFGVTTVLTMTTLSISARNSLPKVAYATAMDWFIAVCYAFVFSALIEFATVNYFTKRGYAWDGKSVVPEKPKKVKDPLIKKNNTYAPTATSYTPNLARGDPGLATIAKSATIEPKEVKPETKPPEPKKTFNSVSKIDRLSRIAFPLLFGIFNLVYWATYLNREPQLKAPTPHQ
T2 sequence (P28472 26-473): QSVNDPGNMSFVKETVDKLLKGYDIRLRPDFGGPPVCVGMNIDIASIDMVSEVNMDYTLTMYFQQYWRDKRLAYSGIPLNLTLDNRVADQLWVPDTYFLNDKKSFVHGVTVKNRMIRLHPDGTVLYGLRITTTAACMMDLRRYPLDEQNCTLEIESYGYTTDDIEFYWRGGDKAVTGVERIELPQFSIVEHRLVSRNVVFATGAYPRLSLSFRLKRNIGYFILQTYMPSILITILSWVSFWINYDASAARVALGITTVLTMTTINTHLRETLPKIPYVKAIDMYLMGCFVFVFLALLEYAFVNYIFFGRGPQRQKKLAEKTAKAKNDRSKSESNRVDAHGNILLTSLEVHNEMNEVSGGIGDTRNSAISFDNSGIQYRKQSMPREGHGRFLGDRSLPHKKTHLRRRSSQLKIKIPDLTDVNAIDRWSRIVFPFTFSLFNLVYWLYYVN
The assay is described as follows: Whole-cell patch clamp, GABA concentration response, HEK 293 cells. More on the design: expressed in transfected cells; host or cells: HEK 293 cells, transient calcium-phosphate transfection, α1:β3:GFP 1:1:1. The assay is classed as cell-based. On the technique in general: In patch-clamp work, channel activity is measured electrically.
Method: as §1
(§2) Peak current responses and desensitization rates were obtained using Clampfit 10.2 (Molecular Devices).

Assay [4] has as its target α1β3 cryo-EM construct (α1β3CryoEM) (Homo sapiens, UniProt P14867+P28472, DEL344-414/G341Q/R340S/S415R/S417A/V416A/Y342P). The note with it: for IC50: mean pIC50 converted.
From the text: The α1 intracellular M3–M4 loop amino acids 313–391 (RGYA…NSVS) were substituted by the SQPARAA sequence[46]. […] The mature engineered α1 construct with a 1D4 purification tag derived from bovine rhodopsin ([sequence]) that is recognized by the Rho-1D4 monoclonal antibody (University of British Columbia)[47],[48] was cloned into the pHLsec vector after the vector secretion signal[49], ending [sequence]. […] The engineered β3 construct was cloned into pHLsec after the vector secretion sequence without any tags.
as §1
(§3) For free Zn^2+ concentration experiments, the Zn^2+ chelator tricine was used to precisely control Zn^2+ concentration and eliminate background Zn^2+ contamination. Krebs solution was supplemented with 10 mM tricine and pH corrected to 7.4.
as §2
The subject of the next assay is αβδ receptors. The note with it: one β-subunit His replaced by Ser (δ-subunit), relative to αβ; cited from earlier work.
A further assay concerns αβγ receptors. The settings on record: one β-subunit His replaced by Ile (γ-subunit), relative to αβ; cited from earlier work.
Assay [5] addresses T2, human GABAA α1β3 (WT). Nature of the assay: Whole-cell patch clamp, Zn2+ inhibition of GABA currents, HEK 293 cells. The assay is classed as cell-based. More on the design: expressed in transfected cells; host or cells: HEK 293 cells, transient calcium-phosphate transfection, α1:β3:GFP 1:1:1.
Method: as §1, §3, §2
In a further assay the test system is α1β3. More on the design: method as in earlier work. The note with it: muscimol versus muscimol + propofol; ref 2020 Akk G Steinbach JH, PMID:32873746; cited from earlier work.
In a further assay the test system is α2-GABAAR subunit. The note with it: Lys in α2 at the position of α1 Ser69; cited from earlier work.
For a further assay, the system named is GABA-A receptors. The settings on record: author rebuttal, peer review file; reference not given; cited from earlier work.
Where [6] appears, read: 66 nM free Zn2+ (tricine-controlled), α1β3 cryo-EM construct, mean ± s.e.m., n = 7.
Where [7] appears, read: 66 nM free Zn2+ (tricine-controlled), wild-type, mean ± s.e.m., n = 7.

Values joined by “and” are separate entries in the source; they are usually repeats but may differ in a detail not shown here. Equal entries are not always repeated. Where two headings read alike, the source gives them in different places.

T1 sequence (P18507 40-475, one chain of several): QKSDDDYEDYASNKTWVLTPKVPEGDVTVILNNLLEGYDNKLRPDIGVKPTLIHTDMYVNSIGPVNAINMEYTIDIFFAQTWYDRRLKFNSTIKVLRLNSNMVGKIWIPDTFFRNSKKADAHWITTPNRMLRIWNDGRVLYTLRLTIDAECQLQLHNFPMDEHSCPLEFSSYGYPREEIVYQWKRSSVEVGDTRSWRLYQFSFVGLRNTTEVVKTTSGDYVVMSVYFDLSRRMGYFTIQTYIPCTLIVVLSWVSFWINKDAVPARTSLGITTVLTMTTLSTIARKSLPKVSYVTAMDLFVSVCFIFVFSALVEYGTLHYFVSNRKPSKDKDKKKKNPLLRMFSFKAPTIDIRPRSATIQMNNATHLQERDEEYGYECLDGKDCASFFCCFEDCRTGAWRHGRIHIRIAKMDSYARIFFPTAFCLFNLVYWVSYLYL
α1β3 cryo-EM construct (α1β3CryoEM), sequence (P14867 with tags, fused parts or gaps R340S/G341Q/Y342P/DEL344-414/S415R/V416A/S417A): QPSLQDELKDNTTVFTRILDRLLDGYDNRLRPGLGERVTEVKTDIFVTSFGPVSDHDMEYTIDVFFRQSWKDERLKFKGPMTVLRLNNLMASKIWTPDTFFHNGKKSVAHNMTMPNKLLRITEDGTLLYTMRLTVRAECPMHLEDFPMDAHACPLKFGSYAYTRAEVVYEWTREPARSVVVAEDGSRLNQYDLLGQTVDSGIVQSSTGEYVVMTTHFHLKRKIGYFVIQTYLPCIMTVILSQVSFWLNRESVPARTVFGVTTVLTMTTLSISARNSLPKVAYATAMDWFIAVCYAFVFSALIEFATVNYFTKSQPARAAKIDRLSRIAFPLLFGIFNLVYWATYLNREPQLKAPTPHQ
α1β3 cryo-EM construct (α1β3CryoEM), sequence (P28472 with tags, fused parts or gaps, stated change not applied): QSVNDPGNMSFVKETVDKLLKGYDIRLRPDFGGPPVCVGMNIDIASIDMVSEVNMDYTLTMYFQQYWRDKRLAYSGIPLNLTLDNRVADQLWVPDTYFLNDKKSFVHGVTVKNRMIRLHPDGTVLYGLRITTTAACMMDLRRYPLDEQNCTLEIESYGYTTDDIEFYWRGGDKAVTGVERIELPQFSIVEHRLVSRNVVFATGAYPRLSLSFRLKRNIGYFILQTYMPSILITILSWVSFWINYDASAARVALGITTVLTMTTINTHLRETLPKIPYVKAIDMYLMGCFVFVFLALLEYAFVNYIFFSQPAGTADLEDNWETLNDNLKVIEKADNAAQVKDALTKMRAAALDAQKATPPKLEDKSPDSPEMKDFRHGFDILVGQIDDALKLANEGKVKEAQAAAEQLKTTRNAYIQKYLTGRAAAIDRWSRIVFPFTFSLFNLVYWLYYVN

Take `NCCCC(=O)O` [GABA, γ-aminobutyric acid]: the “probability of activation (PA)” value on α1β3γ2WT [1] is > 0.9 and 0.94 ± 0.03. For the same molecule, the “GABA ~EC95” value at α1β3γ2WT [2] was roughly 100000 nM; on human GABAA α1β3 (WT) [3] (α1β3WT, concentration used for single channel recordings), roughly 30000 nM. Further, the “GABA EC20” value on human GABAA α1β3 (WT) [3] (submaximal (20%) response, used for wild-type and cryo-EM construct) worked out at 1000 nM.
As a reminder, the IC50 is the concentration at which inhibition is half-maximal. Regarding `[Zn+2]` [Zn^2+], the “inhibition of EC20 (1 μM) GABA response” value in assay [4] (setting [6]) is given as 32 ± 2%; on human GABAA α1β3 (WT) [5] (setting [7]) it was 38 ± 2%. Further, the “inhibition of maximal (1 mM) GABA response” value was 32 ± 4% in assay [4] (setting [6]) and 36 ± 6% at human GABAA α1β3 (WT) [5] (setting [7]). The inhibition entry in assay [4] (20 μM Zn2+, Extended Data Fig. 5a (shows WT and cryo-EM construct)) is “approximately 90%”. Further, the IC50 in assay [4] (read-out: IC50 Zn2+ inhibition, α1β3CryoEM, absence of tricine) is 220 nM; in assay [4] (read-out: IC50 free Zn2+ inhibition, α1β3CryoEM, 10 mM tricine), 230 nM; on human GABAA α1β3 (WT) [5] (α1β3WT, 10 mM tricine, mean pIC50 converted, read-out: IC50 free Zn2+ inhibition) it was 149 nM. Besides, the “pIC50 free Zn2+ inhibition” value in assay [4] (α1β3CryoEM, 10 mM tricine, n = 7) was 6.64 ± 0.2; at human GABAA α1β3 (WT) [5] (α1β3WT, 10 mM tricine, n = 8), 6.83 ± 0.1. Further, in [4] (α1β3CryoEM, absence of tricine, n = 6), the “pIC50 Zn2+ inhibition” value came out at 6.66 ± 0.11. In addition, the “reduction of Zn2+ sensitivity” value with αβδ receptors is listed as 50 fold; in the assay with αβγ receptors, 200 fold.
`NCc1cc(=O)[nH]o1` [muscimol]: the “probability of activation (PA)” value in the assay with α1β3 is recorded as ~ 0.6.

B1: α-Cobratoxin (protein)
chain: IRCFITPDITSKDCPNGHVCYTKTWCDAFCSIRGKRVDLGCAATCPTVKTGVDIQCCSTDNCNPFPTRKRP
Take B1: the “reduction of sensitivity to α-CBTx” value with α2-GABAAR subunit was “fivefold”. In addition, the “sensitivity of GABA-A receptors” value with GABA-A receptors was “sub-micromolar”.

Values taken from PMC8850191, “Mechanisms of inhibition and activation of extrasynaptic αβ GABAA receptors” (Nature, 2022).
